Where a SMILES comes first, the peptide text is derived from it. [ ]: non-standard residue; d: D form. The star is where a group is joined. ξ: configuration not given here. FITC = O=C1OC2(c3ccc(O)cc3Oc3cc(O)ccc32)c2ccc(NC(=S)*)cc21; Phe(4-NO2) = N[C@@H](Cc1ccc([N+](=O)[O-])cc1)C(=O)O; ξAla(4-thiazolyl) = NC(Cc1cscn1)C(=O)O; pS = N[C@@H](COP(=O)(O)O)C(=O)O; β3hS = N[C@@H](CO)CC(=O)O; βAla = NCCC(=O)O

Results on two compounds are retold here after article PMC9667936, “Functional mapping of the 14-3-3 hub protein as a guide to design 14-3-3 molecular glues” (Chemical Science, 2022).

For the experiment, the target named is T1, 14-3-3γ (Homo sapiens, UniProt P61981).
T1 construct: made in house; host or cells: E. coli NiCo21 (DE3)
T1 sequence (P61981 1-247): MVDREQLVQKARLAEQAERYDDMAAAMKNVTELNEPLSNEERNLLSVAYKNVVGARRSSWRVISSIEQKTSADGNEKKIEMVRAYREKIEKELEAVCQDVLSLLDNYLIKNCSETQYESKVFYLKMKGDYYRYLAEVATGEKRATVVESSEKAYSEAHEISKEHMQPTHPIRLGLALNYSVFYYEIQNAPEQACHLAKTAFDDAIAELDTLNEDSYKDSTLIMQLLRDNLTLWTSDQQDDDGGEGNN
Nature of the experiment: Fluorescence anisotropy (FA) binary binding study: 14-3-3 titrated to fluorescein-labelled peptide. To be noted: for individual ΔΔG of removed residue: ΔG relative to the previously truncated peptide; for Fold change to previous / ΔG / ΔΔG (to previous): Table S2. The protocol:
14-3-3γ protein expression (FP/ITC experiments)
(§1) A pPROEX HTb expression vector encoding the human 14-3-3 protein gamma (14-3-3γ) with an N-terminal his6-tag was transformed by heat shock into NiCo21 (DE3) competent cells. Single colonies were cultured in 50 mL LB medium (100 µg/mL ampicillin). After overnight incubation at 37 °C, cultures were transferred to 2 L TB media (100 µg/mL ampicillin, 1 mM MgCl2) and incubated at 37 °C until an OD600 nm of 0.8-1.2 was reached. Protein expression was then induced with 0.4 mM isopropyl-β-d-thiogalactoside (IPTG), and cultures were incubated overnight at 18 °C. Cells were harvested by centrifugation (8600 rpm, 20 minutes, 4 °C) and resuspended in lysis buffer (50 mM Hepes, pH 8.0, 300 mM NaCl, 12.5 mM imidazole, 5 mM MgCl2, 2 mM βME) containing cOmplete™ EDTA-free Protease Inhibitor Cocktail tablets (1 tablet/100 ml lysate) and benzonase (1 µl/100 ml). After lysis using a C3 Emulsiflex-C3 homogenizer (Avestin), the cell lysate was cleared by centrifugation (20000 rpm, 30 minutes, 4 °C) and purified using Ni2+-affinity chromatography (Ni-NTA superflow cartridges, Qiagen).
Typically two 5 mL columns (flow 5 mL/min) were used for a 2 L culture in which the lysate was loaded on the column washed with 10 CV wash buffer (50 mM Hepes, pH 8.0, 300 mM NaCl, 25 mM imidazole, 2 mM βME) and eluted in several fractions (2-4 CV) of elution buffer (50 mM Hepes, pH 8.0, 300 mM NaCl, 250 mM imidazole, 2 mM βME). Fractions containing the 14-3-3 protein were combined and dialyzed into 25 mM HEPES pH 8.0, 100 mM NaCl, 10 mM MgCl2, 500 µM TCEP. Finally, the protein was concentrated to ∼60 mg/mL, analyzed Q-Tof LC/MS, and aliquots were flash-frozen for storage at […]
as §1, with “sigma truncated after T231 (14-3-3σΔc) and” for “gamma (14-3-3γ)”, “tablet/ 100” for “tablet/100”, “µl/ 100” for “µl/100”, “ml).” for “ml). After lysis using a C3 Emulsiflex-C3 homogenizer (Avestin), the cell lysate was cleared by centrifugation (20000 rpm, 30 minutes, 4 °C) and purified using Ni2+-affinity chromatography (Ni-NTA superflow cartridges, Qiagen).”
After lysis using a C3 Emulsiflex-C3 homogenizer (Avestin), the cell lysate was cleared by centrifugation (20000 rpm, 30 minutes, 4 °C) and purified using Ni2+-affinity chromatography (Ni-NTA superflow cartridges, Qiagen). Typically two 5 mL columns were used for a 2 L culture in which the lysate was loaded on the column washed with 10 CV wash buffer (50 mM Hepes, pH 8.0, 300 mM NaCl, 25 mM imidazole, 2 mM βME) and eluted with several fractions (2-4 CV) of elution buffer (50 mM Hepes, pH 8.0, 300 mM NaCl, 250 mM imidazole, 2 mM βME). Fractions containing the 14-3-3 protein were combined and dialyzed into 25 mM HEPES pH 8.0, 200 mM NaCl, 10 mM MgCl2, 2 mM βME. In addition, 1 mg TEV was added for each 100 mg purified protein to remove the purification tag. The cleaved sample was then again loaded on a 10 mL Ni-NTA column to separate the cleaved product from the expression tag and residual uncleaved protein. The flowthrough was loaded on a Superdex 75 pg 16/60 size exclusion column (GE Life Sciences) using 25 mM HEPES, 100 mM NaCl, 10 mM MgCl2, 500 μM TCEP (adjusted to pH=8.0) as running buffer. Fractions containing the 14-3-3 protein were pooled and concentrated to ∼60 mg/mL, analyzed Q-Tof LC/MS, and aliquots were flash-frozen for storage at −80 […]
The peptides 1 and 2a-d were synthesized on 50 µmol scale on a Rink amide MBHA resin […]

[1] abbreviates: FA KD of peptide divided by KD of previous (one amino acid longer) peptide, mean of n = 3.
Setting [2] is: KD / KD of previous (one amino acid longer) peptide, replicate 1.
Setting [3] is: KD / KD of previous (one amino acid longer) peptide, replicate 2.
The mark [4] stands for this setting: KD / KD of previous (one amino acid longer) peptide, replicate 3.
[5] abbreviates: calculated from FA KD, mean of n = 3.
Setting [6] is: ΔG minus ΔG of previous peptide, FA, replicate 1.
The mark [7] stands for this setting: ΔG minus ΔG of previous peptide, FA, replicate 2.
[8] abbreviates: ΔG minus ΔG of previous peptide, FA, replicate 3.
The mark [9] stands for this setting: ΔG of peptide minus ΔG of previous (one amino acid longer) peptide, FA, mean of n = 3.

For `C[C@H](NC(=O)[C@H](CCCCN)NC(=O)[C@H](Cc1ccc([N+](=O)[O-])cc1)NC(=O)CCNC(=O)C[C@H](CO)NC(=O)[C@H](Cc1ccc([N+](=O)[O-])cc1)NC(=O)[C@H](COP(=O)(O)O)NC(=O)C(N)Cc1cscn1)C(=O)N[C@@H](CCCCNC(=S)Nc1ccc2c(c1)C(=O)OC21c2ccc(O)cc2Oc2cc(O)ccc21)C(N)=O` (stereo partly drawn) [2c] (H-[ξAla(4-thiazolyl)][pS][Phe(4-NO2)][β3hS][βAla][Phe(4-NO2)]KAK(FITC)-NH2), the “individual ΔΔG of removed residue” value (FA) is recorded as “only minor energy contributions”. In addition, the “Fold change to previous” value by setting is: under setting [1], 0,53; under setting [2], 0,51; under setting [3], 0,53; under setting [4], 0,56. The ΔG was -9,90 kcal/mol under setting [5]; -9,93 kcal/mol (from FA KD, replicate 1); -9,88 kcal/mol (from FA KD, replicate 2); -9,88 kcal/mol (from FA KD, replicate 3). The ΔΔG (to previous) under setting [6] is given as -0,40 kcal/mol, the ΔΔG (to previous) under setting [7] is listed as -0,38 kcal/mol, the ΔΔG (to previous) under setting [8] is on record as -0,34 kcal/mol and the ΔΔG (to previous) under setting [9] is -0,37 kcal/mol.
As for `C[C@H](NC(=O)[C@H](CCCCN)NC(=O)[C@H](Cc1ccc([N+](=O)[O-])cc1)NC(=O)CCNC(=O)C[C@H](CO)NC(=O)[C@H](Cc1ccc([N+](=O)[O-])cc1)NC(=O)[C@@H](N)COP(=O)(O)O)C(=O)N[C@@H](CCCCNC(=S)Nc1ccc2c(c1)C(=O)OC21c2ccc(O)cc2Oc2cc(O)ccc21)C(N)=O` [2d] (H-[pS][Phe(4-NO2)][β3hS][βAla][Phe(4-NO2)]KAK(FITC)-NH2), under “FA KD relative to the previous (one amino acid longer) peptide”, the “fold change in binding affinity on truncation” value is reported as 43 fold. Besides, the “cumulative ΔΔG of truncating the entire N- or C-terminus” value (FA, relative to peptide 1 (2d: entire N-terminus; 2i: entire C-terminus)) worked out at 2.9 kcal/mol. Further, where the note is “FA”, the “individual ΔΔG of removed residue” value was found to be 2.2 kcal/mol. The “ΔΔG N-term (cumulative, whole N-terminus removed)” value (Table S2, N-term = 2d relative to 1, FA, mean of n = 3) is reported as 2,86 kcal/mol. Also, the “ΔΔG N-term (cumulative)” value by setting is: (Table S2, N-term = 2d relative to 1, FA, replicate 1) 2,88 kcal/mol; (Table S2, N-term = 2d relative to 1, FA, replicate 2) 2,94 kcal/mol; (Table S2, N-term = 2d relative to 1, FA, replicate 3) 2,75 kcal/mol. In addition, the “Fold change to previous” value is, setting by setting: under setting [1], 43,23; under setting [2], 40,69; under setting [3], 45,81; under setting [4], 43,18. The ΔG reads like this: under setting [5], -7,67 kcal/mol; (from FA KD, replicate 1) -7,74 kcal/mol; (from FA KD, replicate 2) -7,61 kcal/mol; (from FA KD, replicate 3) -7,65 kcal/mol. The ΔΔG (to previous) under setting [6] is given as 2,19 kcal/mol, the ΔΔG (to previous) under setting [7] is on record as 2,26 kcal/mol, the ΔΔG (to previous) under setting [8] was 2,23 kcal/mol and the ΔΔG (to previous) under setting [9] is reported as 2,23 kcal/mol.
